Experiments:
[1] = molecular target: D(2) dopamine receptor (Homo sapiens) (UniProt P14416); assay: Displacement of [3H]spiperone from human cloned dopamine D2 receptor at 10 uM
[2] = molecular target: 5-hydroxytryptamine receptor 2A (Homo sapiens, UniProt P28223); assay: Displacement of [3H]ketanserin from human cloned 5HT2A receptor
[3] = molecular target: T1, 5-hydroxytryptamine receptor 2C (Homo sapiens, UniProt P28335); assay: Displacement of [3H]mesulergine from human 5HT2C receptor
T1 sequence (P28335 whole entry): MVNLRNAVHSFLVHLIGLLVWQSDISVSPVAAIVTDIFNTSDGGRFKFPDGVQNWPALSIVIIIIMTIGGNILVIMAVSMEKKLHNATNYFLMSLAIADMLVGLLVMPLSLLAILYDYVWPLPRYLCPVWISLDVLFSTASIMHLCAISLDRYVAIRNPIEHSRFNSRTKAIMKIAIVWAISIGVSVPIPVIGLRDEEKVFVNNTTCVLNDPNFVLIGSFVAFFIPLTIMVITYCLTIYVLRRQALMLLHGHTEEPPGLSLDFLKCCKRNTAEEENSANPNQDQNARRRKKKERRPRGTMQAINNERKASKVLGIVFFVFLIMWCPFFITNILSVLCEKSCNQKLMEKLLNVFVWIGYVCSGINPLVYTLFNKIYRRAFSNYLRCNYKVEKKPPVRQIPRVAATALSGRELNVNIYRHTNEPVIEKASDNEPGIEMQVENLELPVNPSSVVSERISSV

[4] = molecular target: D(3) dopamine receptor (Homo sapiens, UniProt P35462)
Chain of D(3) dopamine receptor (P35462 whole entry): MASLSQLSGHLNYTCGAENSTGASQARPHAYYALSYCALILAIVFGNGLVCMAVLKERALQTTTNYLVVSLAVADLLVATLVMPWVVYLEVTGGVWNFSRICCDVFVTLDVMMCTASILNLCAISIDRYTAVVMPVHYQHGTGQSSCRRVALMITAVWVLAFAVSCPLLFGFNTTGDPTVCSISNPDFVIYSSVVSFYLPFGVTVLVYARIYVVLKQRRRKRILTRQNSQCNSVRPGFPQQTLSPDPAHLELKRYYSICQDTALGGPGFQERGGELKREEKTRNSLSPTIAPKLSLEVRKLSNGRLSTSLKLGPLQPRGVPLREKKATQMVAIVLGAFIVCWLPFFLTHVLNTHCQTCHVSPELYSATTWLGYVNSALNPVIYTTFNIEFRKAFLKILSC
Description: Displacement of [3H]spiperone from human dopamine D3 receptor

[5] = molecular target: D(1A) dopamine receptor (Homo sapiens, UniProt P21728)
Chain of D(1A) dopamine receptor (P21728 whole entry): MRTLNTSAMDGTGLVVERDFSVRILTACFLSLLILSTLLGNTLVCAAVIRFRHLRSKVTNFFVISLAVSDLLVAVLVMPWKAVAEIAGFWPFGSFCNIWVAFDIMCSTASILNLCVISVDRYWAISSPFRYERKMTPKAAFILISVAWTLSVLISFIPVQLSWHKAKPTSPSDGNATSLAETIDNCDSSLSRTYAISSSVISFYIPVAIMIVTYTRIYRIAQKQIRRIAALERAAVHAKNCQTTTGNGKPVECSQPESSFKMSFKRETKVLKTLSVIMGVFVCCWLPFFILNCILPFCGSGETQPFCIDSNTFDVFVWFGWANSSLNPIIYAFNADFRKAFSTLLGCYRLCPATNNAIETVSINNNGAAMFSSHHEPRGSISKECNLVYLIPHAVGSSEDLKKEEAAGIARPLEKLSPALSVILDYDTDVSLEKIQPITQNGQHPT
Description: Displacement of [3H]SCH23390 from human dopamine D1 receptor

[6] = species: Homo sapiens; assay: Ratio of pKi for human cloned 5HT2A receptor to pKi for human cloned dopamine D2 receptor

Chain of 5-hydroxytryptamine receptor 2A (P28223 whole entry): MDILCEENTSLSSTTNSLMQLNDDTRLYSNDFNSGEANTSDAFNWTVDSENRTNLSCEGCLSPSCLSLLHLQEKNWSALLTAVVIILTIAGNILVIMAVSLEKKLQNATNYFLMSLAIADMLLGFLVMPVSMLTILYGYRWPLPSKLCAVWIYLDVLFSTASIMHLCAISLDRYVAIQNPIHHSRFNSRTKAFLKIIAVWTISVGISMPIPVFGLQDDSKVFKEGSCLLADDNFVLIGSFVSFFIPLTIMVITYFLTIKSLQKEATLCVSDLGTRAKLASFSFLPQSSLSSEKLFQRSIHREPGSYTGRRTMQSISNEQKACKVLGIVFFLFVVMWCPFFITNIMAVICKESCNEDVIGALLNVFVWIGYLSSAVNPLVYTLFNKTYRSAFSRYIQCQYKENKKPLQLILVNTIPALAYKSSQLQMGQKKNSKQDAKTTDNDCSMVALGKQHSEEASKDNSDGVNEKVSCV
Chain of D(2) dopamine receptor (Homo sapiens) (P14416 whole entry): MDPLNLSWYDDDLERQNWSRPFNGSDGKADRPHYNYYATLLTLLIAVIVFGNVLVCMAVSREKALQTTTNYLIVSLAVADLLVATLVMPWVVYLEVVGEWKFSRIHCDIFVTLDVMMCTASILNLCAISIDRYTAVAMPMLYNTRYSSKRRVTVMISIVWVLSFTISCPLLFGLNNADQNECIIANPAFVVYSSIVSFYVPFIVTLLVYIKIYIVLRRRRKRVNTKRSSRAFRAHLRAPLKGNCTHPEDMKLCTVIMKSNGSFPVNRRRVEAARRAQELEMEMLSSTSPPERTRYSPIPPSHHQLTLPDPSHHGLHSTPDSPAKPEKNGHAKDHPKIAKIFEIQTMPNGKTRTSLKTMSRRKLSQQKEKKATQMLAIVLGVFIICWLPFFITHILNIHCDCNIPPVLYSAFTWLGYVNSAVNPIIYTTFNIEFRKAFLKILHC

Row | Compound | inhibition [1] [%] | Ki [2] [nM] | Ki [3] [nM] | Ki [4] [nM] | Ki [5] [nM] | Ratio pKi [6]
1 | O=C1CC(CN2CCC(C(=O)c3ccc(F)cc3)CC2)Cc2nc(-c3ccccc3)ncc21 (stereo not drawn) | < 60 | 631 | – | – | – | –
2 | CSc1ncc2c(n1)CC(CN1CCC(c3noc4cc(F)ccc34)CC1)CC2=O (stereo not drawn) | – | 4.57 | > 10000 | 44.7 | – | –
3 | CNc1ncc2c(n1)CC(CN1CCC(c3noc4cc(F)ccc34)CC1)CC2=O (stereo not drawn) | – | 2.4 | > 10000 | 200 | 42.7 | 1.18
4 | O=C1CC(CN2CCC(c3noc4cc(F)ccc34)CC2)Cc2nc(-c3ccccc3)ncc21 (stereo not drawn) | – | 126 | – | – | – | 0.92
5 | CNc1ncc2c(n1)CC(CN1CCC(C(=O)c3ccc(F)cc3)CC1)CC2=O (stereo not drawn) | – | 6.46 | – | – | – | 1.23
6 | O=C1CC(CN2CCC(C(=O)c3ccc(F)cc3)CC2)Cc2ncncc21 (stereo not drawn) | – | 309 | – | – | – | 1.05
7 | CSc1ncc2c(n1)CC(CN1CCC(C(=O)c3ccc(F)cc3)CC1)CC2=O (stereo not drawn) | < 60 | 102 | – | – | – | –
8 | O=C1CC(CN2CCC(c3noc4cc(F)ccc34)CC2)Cc2ncncc21 (stereo not drawn) | – | 23.4 | 501 | 282 | 135 | 1.12

— ChEMBL document CHEMBL1154195, “Synthesis and binding affinity of potential atypical antipsychotics with the tetrahydroquinazolinone motif” (Bioorg Med Chem Lett, 2009)
